{
  "source": "patent US11535633B2",
  "about": "“Fused tricyclic heterocycle compounds and therapeutic uses thereof” (Jiangsu Hengrui Medicine Co., Ltd., priority 2018, dated 2022)",
  "key": {"[1]": {"system": "Human PBMC cells", "experiment": "IFNβ secretion in human PBMC", "assay_type": "cell-based", "conditions": "IFNβ in supernatant by ELISA, 5 hours incubation", "experimental": "Test Example 3. IFNβ Secretion in Human PBMC\n• 1. Human PBMC cells (STEMCELL Technologies) • 2. Lymphocyte Medium (Zenbio) • 3. Culture and compound dilution media: RPMI with high glucose and glutamine (Genesee, Cat. #25-506), 10% fetal bovine serum (Life Technologies, Cat. #10082147), 100 μg/ml Normocin (InvivoGen, Cat. #ant-nr-2) and Penicillin-Streptomycin (100×) (Life Technologies, Cat. #15140122) • 4. Human IFNβ Quantikine ELISA kit (R&D systems) • 5. Infinite M1000 plate reader (TECAN) Experimental Procedure\nCryopreserved peripheral blood human mononuclear cells (PBMCs) were rapidly thawed and resuspended in Lymphocyte Media and centrifuged at 500×g for 5 minutes. The supernatant was removed and the cell pellets were gently resuspended in cell culture and compound dilution media. Human PBMC cells were plated in a 96-well format at a concentration of 1.5×10^5 cells per well. The test compounds, at varying concentrations, or vehicle control (<0.3% DMSO) were mixed with the cells giving a final volume of 150 μl per well. The plates were incubated for 5 hours in a humidified, 5% CO2 incubator at 37° C. After incubation, the human IFNβ in the supernatant and the IFNβ standard controls were measured using human IFNβ Quantikine ELISA kit according to the manufacturer's protocol. The absorbance at 450 nm was measured with Infinite M1000 plate reader and corrected by background reading at 540 nm of each well. The amount of […] based on the standard curves. The plot of IFNβ concentration versus the log of compound concentration was fit in GraphPad Prism with a 4-parameter concentration response equation to calculate EC50 and Emax."}, "[2]": {"target": "T1, STING in THP1-Dual KI-hSTING-R232 cells (Homo sapiens, UniProt Q86WV6, H232R)", "T1 construct": "host or cells: THP1-Dual KI-hSTING-R232 cells (human monocytic THP-1 reporter line)", "T1 sequence (Q86WV6 whole entry H232R)": "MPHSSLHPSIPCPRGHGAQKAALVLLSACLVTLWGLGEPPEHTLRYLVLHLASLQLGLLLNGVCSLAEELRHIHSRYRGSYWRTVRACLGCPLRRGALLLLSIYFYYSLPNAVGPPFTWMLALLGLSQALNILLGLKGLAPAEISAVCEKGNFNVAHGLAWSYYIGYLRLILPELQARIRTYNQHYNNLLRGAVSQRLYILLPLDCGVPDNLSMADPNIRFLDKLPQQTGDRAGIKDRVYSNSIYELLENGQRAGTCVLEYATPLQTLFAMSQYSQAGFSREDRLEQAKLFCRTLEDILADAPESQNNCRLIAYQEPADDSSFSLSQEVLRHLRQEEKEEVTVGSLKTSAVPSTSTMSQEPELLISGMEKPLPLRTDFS", "experiment": "Human THP1 reporter cell assay (IRF luciferase reporter)", "assay_type": "cell-based", "conditions": "24 hours incubation", "experimental": "Test Example 2. Human THP1 Reporter Cell Assay\n• 1. Human THP1-Dual KI-hSTING-R232 Cells (InvivoGen, Cat. #thpd-r232) • 2. QUANTI-LUC (InvivoGen, Cat. #rep-qlc2) • 3. Media for cell culture and compound dilution: RPMI with high glucose and glutamine (Genesee, Cat. #25-506), 10% fetal bovine serum (Life Technologies, Cat. #10082147), 25 mM HEPES (Genesee, Cat. #25-534), 100 μg/ml Normocin (InvivoGen, Cat. #ant-nr-2), 10 μg/ml blasticidin (InvivoGen, Cat. #ant-bl-05), 100 μg/ml Zeocin (InvivoGen, Cat. #ant-zn-5p) and Penicillin-Streptomycin (100×) (Life Technologies, Cat. #15140122) • 4. Infinite M1000 plate reader (TECAN) Experimental Procedure\nActivation of STING in THP1-Dual KI-hSTING-R232 cells was determined by measuring the luminescence signal resulting from the expression of the IRF luciferase reporter gene. All reagent preparation and assay procedures were conducted according to the protocols provided by InvivoGen. In brief, test compounds and cells (1×10^5 cells per well) were dispensed into 96-well plates with a final volume per well of 150 μl. Plates were incubated in a humidified, 5% CO2 incubator at 37° C. for 24 hours. The expression level of the reporter gene was measured by transferring 20 μl of the supernatant to a non-transparent 96-well plate to which 50 μl of QUANTI-LUC was dispensed into each well. The resulting luminescence signal was immediately read using a TECAN plate reader. The background luminescence signal from media was subtracted. The fold induction effect of the luminescence signal at each compound concentration was determined relative to controls that lack compound treatment. The plot of fold induction effect versus the log of compound concentration was fit in GraphPad Prism with a 4-parameter concentration response equation to calculate EC50 and Emax.\nActivation of STING in THP1 of the compounds in the present invention was determined by the above assay, and EC50 values are shown in the following table 2."}, "[3]": {"target": "T2, hSTING c-terminal domain (purified hSTING aa154-342) (Homo sapiens, UniProt Q86WV6)", "T2 construct": "Purified hSTING (aa154-342)", "T2 sequence (Q86WV6 154-342)": "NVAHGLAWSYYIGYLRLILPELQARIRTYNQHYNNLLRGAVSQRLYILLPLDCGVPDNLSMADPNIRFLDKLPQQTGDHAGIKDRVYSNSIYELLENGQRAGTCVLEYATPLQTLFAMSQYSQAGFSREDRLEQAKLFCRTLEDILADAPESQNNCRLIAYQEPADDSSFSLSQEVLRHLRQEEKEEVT", "experiment": "Thermal shift assay for measuring the relative binding affinity to hSTING c-terminal domain", "conditions": "Tm of sample minus mean Tm of negative control (buffer, 2% DMSO), SYPRO Orange", "experimental": "Test Example 1. Thermal Shift Assay for Measuring the Relative Binding Affinity to hSTING c-Terminal Domain\nFrom each of the 10 mM stock solutions of compounds in DMSO, dilutions are made to create samples with three concentrations 10 mM, 5 mM and 2.5 mM. From these dilutions a final 50 fold dilution is made into assay buffer, giving concentrations of 200 μM, 100 μM, and 50 μM. From each of the buffer dilutions, 5 μL is added to the 384 well assay plate. A positive control is setup with cGAMP using the same dilution scheme as the ligands. A baseline thermal shift for the negative control is determined using buffer and 2% DMSO.\nAn aliquot of protein is thawed on ice and SYPRO orange reagent is brought to room temperature. The 5000× SYPRO orange stock is diluted in assay buffer to a concentration of 10×. Protein is diluted to a concentration of 10 μM in the prepared buffer/dye solution. Five micro-liters of protein/buffer/dye solution is added to each of the sample and control wells, and the plate is sealed with the provided films. The plate is centrifuged for 5 min at 20° C. at 1000 rpm.\nOn the Light Cycler instrument, measurements are made over a temperature gradient from 20° C. to 99° C. at 0.07° C./s and data acquisitions collected at a rate of 8/° C. is used to measure the change in fluorescence as a function of temperature. Data analysis is performed using the Roche Light Cycler Software to determine the melting temperature (Tm ° C.) of each sample. A mean Tm ° C. for the negative control is calculated and subtracted from each of the samples to generate the ΔTm ° C. values for each of the ligands.\nThe relative binding affinity to hSTING c-terminal domain of the compounds of the present invention was determined by the above assay, and ΔTm ° C. values are shown in the following table 1."}},
  "note": "pEC50: −log10 of the molar value.",
  "data": [
    {"compound": "CCn1nc(C)cc1C(=O)Nc1nc2cc(C(N)=O)cc(OCCCO)c2n1CCC[C@H]1COc2cc(C(N)=O)cc3nc(NC(=O)c4cc(C)nn4CC)n1c23", "note": "[Example 19, (S)-3-(3-(5-carbamoyl-2-(1-ethyl-3-methyl-1H-pyrazole-5-carboxamido)-7-(3-hydroxypropoxy)-1H-benzo[d]imidazol-1-yl)propyl)-2-(1-ethyl-3-methyl-1H-pyrazole-5-carboxamido)-3,4-dihydro-5-oxa-1,2a-diazaacenaphthylene-7-carboxamide]", "values": [
      {"measurement": "pEC50", "setting": "[1]", "result": 6.15}
    ]},
    {"compound": "CCn1nc(C)cc1C(=O)Nc1nc2cc(C(N)=O)ccc2n1CCC[C@H]1COc2cc(C(N)=O)cc3nc(NC(=O)c4cc(C)nn4CC)n1c23", "note": "[Example 18, (S)-3-(3-(5-carbamoyl-2-(1-ethyl-3-methyl-1H-pyrazole-5-carboxamido)-1H-benzo[d]imidazol-1-yl)propyl)-2-(1-ethyl-3-methyl-1H-pyrazole-5-carboxamido)-3,4-dihydro-5-oxa-1,2a-diazaacenaphthylene-7-carboxamide]", "values": [
      {"measurement": "pEC50", "setting": "[2]", "result": 6.80},
      {"measurement": "pEC50", "setting": "[1]", "result": 6.52}
    ]},
    {"compound": "CC=CCC1COc2cc(C(N)=O)cc3nc(NC(=O)c4cc(C)nn4CC)n1c23", "note": "(stereo not shown) [Example 5, 3-(but-2-en-1-yl)-2-(1-ethyl-3-methyl-1H-pyrazole-5-carboxamido)-3,4-dihydro-5-oxa-1,2a-diazaacenaphthylene-7-carboxamide]", "values": [
      {"measurement": "ΔTm at 100 µM", "setting": "[3]", "result": 2.9, "unit": "°C"},
      {"measurement": "pEC50", "setting": "[2]", "result": 5.52},
      {"measurement": "pEC50", "setting": "[1]", "result": 5.70}
    ]},
    {"compound": "C/C=C/C[C@H]1COc2cc(C(N)=O)cc3nc(NC(=O)c4cc(C)nn4CC)n1c23", "note": "[Example 5-3, (S,E)-3-(but-2-en-1-yl)-2-(1-ethyl-3-methyl-1H-pyrazole-5-carboxamido)-3,4-dihydro-5-oxa-1,2a-diazaacenaphthylene-7-carboxamide]", "values": [
      {"measurement": "pEC50", "setting": "[2]", "result": 5.89},
      {"measurement": "pEC50", "setting": "[1]", "result": 5.82}
    ]},
    {"compound": "CCn1nc(C)cc1C(=O)Nc1nc2cc(C(N)=O)cc(OCCCN3CCOCC3)c2n1CCC[C@H]1COc2cc(C(N)=O)cc3nc(NC(=O)c4cc(C)nn4CC)n1c23", "note": "[Example 22, (S)-3-(3-(5-carbamoyl-2-(1-ethyl-3-methyl-1H-pyrazole-5-carboxamido)-7-(3-morpholinopropoxy)-1H-benzo[d]imidazol-1-yl)propyl)-2-(1-ethyl-3-methyl-1H-pyrazole-5-carboxamido)-3,4-dihydro-5-oxa-1,2a-diazaacenaphthylene-7-carboxamide]", "values": [
      {"measurement": "pEC50", "setting": "[2]", "result": 7.00},
      {"measurement": "pEC50", "setting": "[1]", "result": 6.47}
    ]},
    {"compound": "C=CC[C@H]1COc2cc(C(N)=O)cc3nc(NC(=O)c4cc(C)nn4CCC)n1c23", "note": "[Example 11, (S)-3-allyl-2-(3-methyl-1-propyl-1H-pyrazole-5-carboxamido)-3,4-dihydro-5-oxa-1,2a-diazaacenaphthylene-7-carboxamide]", "values": [
      {"measurement": "ΔTm at 100 µM", "setting": "[3]", "result": 5.5, "unit": "°C"},
      {"measurement": "pEC50", "setting": "[1]", "result": 4.77}
    ]},
    {"compound": "CCn1nc(C)cc1C(=O)Nc1nc2cc(C(N)=O)cc(OC)c2n1CCC[C@H]1COc2cc(C(N)=O)cc3nc(NC(=O)c4cc(C)nn4CC)n1c23", "note": "[Example 13, (S)-3-(3-(5-carbamoyl-2-(1-ethyl-3-methyl-1H-pyrazole-5-carboxamido)-7-methoxy-1H-benzo[d]imidazol-1-yl)propyl)-2-(1-ethyl-3-methyl-1H-pyrazole-5-carboxamido)-3,4-dihydro-5-oxa-1,2a-diazaacenaphthylene-7-carboxamide]", "values": [
      {"measurement": "ΔTm at 100 µM", "setting": "[3]", "result": 10.7, "unit": "°C"},
      {"measurement": "pEC50", "setting": "[2]", "result": 7.52},
      {"measurement": "pEC50", "setting": "[1]", "result": 7.00}
    ]},
    {"compound": "CCn1nc(C)cc1C(=O)Nc1nc2cc(C(N)=O)cc(OC)c2n1C/C=C/C[C@H]1COc2cc(C(N)=O)cc3nc(NC(=O)c4cc(C)nn4CC)n1c23", "note": "[Example 15, (S,E)-3-(4-(5-carbamoyl-2-(1-ethyl-3-methyl-1H-pyrazole-5-carboxamido)-7-methoxy-1H-benzo[d]imidazol-1-yl)but-2-en-1-yl)-2-(1-ethyl-3-methyl-1H-pyrazole-5-carboxamido)-3,4-dihydro-5-oxa-1,2a-diazaacenaphthylene-7-carboxamide]", "values": [
      {"measurement": "ΔTm at 100 µM", "setting": "[3]", "result": 3, "unit": "°C"},
      {"measurement": "pEC50", "setting": "[1]", "result": 4.72}
    ]},
    {"compound": "CCn1nc(C)cc1C(=O)Nc1nc2cc(C(N)=O)cc(OC)c2n1CC=C[C@H]1COc2cc(C(N)=O)cc3nc(NC(=O)c4cc(C)nn4CC)n1c23", "note": "[Example 14, (S)-3-(3-(5-carbamoyl-2-(1-ethyl-3-methyl-1H-pyrazole-5-carboxamido)-7-methoxy-1H-benzo[d]imidazol-1-yl)prop-1-en-1-yl)-2-(1-ethyl-3-methyl-1H-pyrazole-5-carboxamido)-3,4-dihydro-5-oxa-1,2a-diazaacenaphthylene-7-carboxamide]", "values": [
      {"measurement": "ΔTm at 100 µM", "setting": "[3]", "result": 4, "unit": "°C"},
      {"measurement": "pEC50", "setting": "[1]", "result": 5.74}
    ]},
    {"compound": "CCn1nc(C)cc1C(=O)Nc1nc2cc(C(N)=O)cc(OCCO)c2n1CCC[C@H]1COc2cc(C(N)=O)cc3nc(NC(=O)c4cc(C)nn4CC)n1c23", "note": "[Example 20, (S)-3-(3-(5-carbamoyl-2-(1-ethyl-3-methyl-1H-pyrazole-5-carboxamido)-7-(2-hydroxyethoxy)-1H-benzo[d]imidazol-1-yl)propyl)-2-(1-ethyl-3-methyl-1H-pyrazole-5-carboxamido)-3,4-dihydro-5-oxa-1,2a-diazaacenaphthylene-7-carboxamide]", "values": [
      {"measurement": "ΔTm at 100 µM", "setting": "[3]", "result": 13, "unit": "°C"},
      {"measurement": "pEC50", "setting": "[2]", "result": 7.00}
    ]},
    {"compound": "CCn1nc(C)cc1C(=O)Nc1nc2cc(C(N)=O)cc(OCCCN(C)C)c2n1CCC[C@H]1COc2cc(C(N)=O)cc3nc(NC(=O)c4cc(C)nn4CC)n1c23", "note": "[Example 24, (S)-3-(3-(5-carbamoyl-7-(3-(dimethylamino)propoxy)-2-(1-ethyl-3-methyl-1H-pyrazole-5-carboxamido)-1H-benzo[d]imidazol-1-yl)propyl)-2-(1-ethyl-3-methyl-1H-pyrazole-5-carboxamido)-3,4-dihydro-5-oxa-1,2a-diazaacenaphthylene-7-carboxamide]", "values": [
      {"measurement": "ΔTm at 100 µM", "setting": "[3]", "result": 12, "unit": "°C"},
      {"measurement": "pEC50", "setting": "[2]", "result": 6.46}
    ]},
    {"compound": "C/C=C\\C[C@H]1COc2cc(C(N)=O)cc3nc(NC(=O)c4cc(C)nn4CC)n1c23", "note": "[Example 5-2, (S,Z)-3-(but-2-en-1-yl)-2-(1-ethyl-3-methyl-1H-pyrazole-5-carboxamido)-3,4-dihydro-5-oxa-1,2a-diazaacenaphthylene-7-carboxamide]", "values": [
      {"measurement": "pEC50", "setting": "[2]", "result": 5.89},
      {"measurement": "pEC50", "setting": "[1]", "result": 5.72}
    ]}
  ]
}
